{"source": "PubChem BioAssay AID2740", "about": "(NMMLSC, 2010)", "note": "Calls of active or inactive are those of the source.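 Rule for the calls: active = compounds whose fitted half-maximal concentration for changing the GFP signal is at or below a set limit; inactive = the rest.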"}
{"tested_on": "not listed separately", "assay": "TOR pathway RPL19A-GFP modulators, concentration series – cell-based, S. cerevisiae, flow cytometry, MLPCN hits, dose response (AID 2740);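 for GFP fluorescence, lower = active: background is signal of the same compound in parental non-GFP s288c yeast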", "details": "S. cerevisiae RPL19A-GFP strain, flow cytometry fluorescence, 3 h; at 33 µM (top of the series)"}
{"smiles": "O=C(OCC(=O)N1CCN(C(=O)c2ccco2)CC1)c1cc(-c2ccc(F)cc2)nc2ccccc12", "GFP fluorescence, lower = active (kMESF (background-subtracted))": "32.3 (inactive)"}
{"tested_on": "S. cerevisiae RPL19A-GFP strain, flow cytometry fluorescence, 3 h", "assay": "TOR pathway RPL19A-GFP modulators, concentration series – cell-based, S. cerevisiae, flow cytometry, MLPCN hits, dose response (AID 2740);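 for GFP fluorescence, lower = active: background is signal of the same compound in parental non-GFP s288c yeast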", "details": "not given", "units": {"EC50": "µM"}}
{"smiles": "C#CCOCCOCCOCCNc1nc(N2CCN(C(=O)CCCCCCCCCCNC(=O)[C@H](CCCCN)n3cc(CCO)nn3)CC2)nc(N2CCN(C(=O)CCCCCCCCCCNC(=O)[C@H](CCCCN)n3cc(C[C@@H](C)CC)nn3)CC2)n1", "EC50": 10.1}
{"smiles": "Cc1ccc(NC(=O)c2cc(N3C(=O)C=CC3=O)ccc2N2CCOCC2)cc1Cl", "EC50": 4.02}
{"smiles": "O=C(/C=C/c1cccc([N+](=O)[O-])c1)c1ccc([N+](=O)[O-])o1", "EC50": 3.5}
{"smiles": "CCOC(=O)c1cc(-c2ccc(/C=C3/C(=O)NC(=O)C(C#N)=C3C)o2)ccc1Cl", "EC50": 3.35}
{"smiles": "CC1(C)C[C@H]2C=C(C=O)[C@]3(C=O)C[C@]3(C)[C@H]2C1", "EC50": 3.62}
{"smiles": "O=C(OCC(=O)N1CCN(C(=O)c2ccco2)CC1)c1cc(-c2cccc(Br)c2)nc2ccccc12", "EC50": 3.18}
{"smiles": "Nc1ccc(Br)c2c1C(=O)c1ccccc1C2=O", "EC50": 3.16}
{"smiles": "O=C(Nc1ccc(Cl)cc1Cl)c1cccc(N2C(=O)C=CC2=O)c1", "EC50": 9.64}
{"smiles": "Cc1cccc(C)c1NC(=O)C(Cl)C(=O)c1ccccc1", "note": "(centres undefined)", "EC50": 1.9}
{"smiles": "COc1ccc2c(c1)S/C(=C\\C(=O)c1ccncc1)N2C", "EC50": 3.97}
{"smiles": "O=C1C=CC(=O)N1c1ccc(O)cc1", "EC50": 12.6}
{"smiles": "Cc1nn2c(-c3ccncc3)nnc2c2ccccc12", "EC50": 3.29}
{"smiles": "ClC(Cl)(c1nnnn1-c1ccccc1)c1nnnn1-c1ccccc1", "EC50": 4.62}
{"smiles": "CC(C)(C)c1ccc(NC(=O)COC(=O)c2ccc([N+](=O)[O-])s2)cc1", "EC50": 9.71}
{"smiles": "Cc1ccc(S(=O)(=O)c2ccc([N+](=O)[O-])cn2)cc1", "EC50": 12.9}
{"smiles": "CC(=O)Nc1ncnc2c1c(-c1ccc(Cl)cc1)nn2C(C)(C)C", "EC50": 6.07}
{"smiles": "Cc1ccc(/C=C2\\C(=O)NC(=S)N(c3ccccc3F)C2=O)s1", "EC50": 1.36}
{"smiles": "O=[N+]([O-])c1ccc(S(=O)(=O)c2cccc(C(F)(F)F)c2)nc1", "EC50": 11.8}
{"smiles": "CC1=NNC(=O)/C1=C\\c1cn(-c2ccccc2)nc1-c1cccs1", "EC50": 3.14}
{"smiles": "Cc1ccc(N/N=C(\\C#N)C(N)=S)c(C)c1", "EC50": 5}
{"smiles": "O=[N+]([O-])c1cc(Cl)cc(/C=N\\Nc2ccccn2)c1O", "EC50": 8.02}
{"smiles": "Cc1ccc(S(=O)(=O)ON2C(=O)c3ccccc3C2=O)c(C)c1", "EC50": 14}
{"smiles": "COc1cccc2sc(Nc3nc(-c4ccccn4)cs3)nc12", "EC50": 3.82}
{"smiles": "CC(=O)SC(C[N+](=O)[O-])c1cn(C(C)=O)c2ccccc12", "note": "(centres undefined)", "EC50": 12.4}
{"smiles": "O=C(OCC(=O)N1CCN(C(=O)c2ccco2)CC1)c1cc(-c2ccc(F)cc2)nc2ccccc12", "EC50": 5.05}
{"smiles": "Cc1ccc(/C=C/C(=O)c2ccccc(=O)c2O)c(C)c1", "EC50": 11.3}
{"smiles": "CCCCS(=O)(=O)/C=C\\C=C/S(=O)(=O)CCCC", "EC50": 12.5}
{"smiles": "O=C1NC(=O)N(Cc2ccco2)C(=O)/C1=C/c1ccc(-c2cccc([N+](=O)[O-])c2)o1", "EC50": 11.2}
{"smiles": "CNc1nc(N)c([N+](=O)[O-])c(Nc2cccc(F)c2)n1", "EC50": 7.46}
{"smiles": "CCOc1ccc(N/N=C(/C#N)C(N)=O)cc1", "EC50": 4.55}
{"smiles": "CCOC(=O)c1c(C)oc2c1c(C(c1ccncc1)N1CCOCC1)c(O)c1ccccc12", "note": "(centres undefined)", "EC50": 11.8}
{"smiles": "CCOC(=O)C(C(=O)OCC)C(C(=O)OCC)N1CCOCC1", "note": "(centres undefined)", "EC50": 14.2}
{"smiles": "Cn1ncc(S(=O)(=O)Cc2ccccc2)c(Cl)c1=O", "EC50": 14.9}
{"smiles": "CSc1nnc2c3cc(F)ccc3n(C)c2n1", "EC50": 1.19}
{"smiles": "O=C1NC(=O)C(=Cc2ccc(-c3ccc(Cl)cc3)o2)C(=O)N1", "EC50": 6.81}
{"smiles": "O=C(/C=C/c1cccc(Cl)c1)c1nc2ccccc2[nH]1", "EC50": 4.06}
{"smiles": "Cc1ccc(NC(=O)c2cc(N3C(=O)C=CC3=O)ccc2Cl)cc1C", "EC50": 7.49}
{"smiles": "COc1ccc(N/N=C(\\C#N)C(N)=O)cc1", "EC50": 2.96}
{"smiles": "CCOC(=O)/C(=C\\c1cn(C)c2ccccc12)[N+](=O)[O-]", "EC50": 4.95}
{"smiles": "O=C(C#Cc1ccccc1)c1cccc([N+](=O)[O-])c1", "EC50": 7.47}
{"smiles": "O=C1C=CC(=O)N1c1ccc(N2CCCCC2)cc1", "EC50": 5.05}
{"smiles": "O=C1c2sc3nc4ccccc4n3c2C(=O)N1c1ccccc1Cl", "EC50": 19}
{"smiles": "CCOC(=O)COc1ccc2ccccc2c1/C=C/[N+](=O)[O-]", "EC50": 5.36}
{"smiles": "O=[N+]([O-])c1cc(Cl)c2cccnc2c1O", "EC50": 13}
{"smiles": "O=[N+]([O-])c1ccc(O)c(/C=N/Nc2ccccn2)c1", "EC50": 16.6}
{"smiles": "O=C(/C=C/c1ccccn1)c1ccc(Br)cc1O", "EC50": 26.8}
{"smiles": "C#CCOCCOCCOCCNc1nc(N2CCN(C(=O)CCCCCCCCCCNC(=O)[C@@H](CCC(=O)O)n3cc(CCCCCN)nn3)CC2)nc(N2CCN(C(=O)CCCCCCCCCCNC(=O)[C@H](CCCCN)n3cc(C[C@@H](C)CC)nn3)CC2)n1", "EC50": 11}
{"smiles": "O=C1Oc2ccccc2C(=O)/C1=C/c1ccccc1O", "EC50": 11}
{"smiles": "CC(C)(C)C(=O)C(Cl)C(=O)Nc1ccccc1", "note": "(centres undefined)", "EC50": 11.2}
{"smiles": "CCCCCCCCn1sccc1=O", "EC50": 11.9}
{"smiles": "O=C1NC(=O)N(Cc2ccc(F)cc2)C(=O)/C1=C/c1cccs1", "EC50": 4.65}
{"smiles": "COc1ccc(N2C(=O)/C(=C/c3cccs3)C(=O)NC2=S)cc1", "EC50": 7.77}
{"smiles": "O=c1cc(CSc2ccc(Cl)cc2)nc(-c2ccccn2)[nH]1", "EC50": 12.9}
{"smiles": "CC1=NNC(=O)/C1=C\\c1cn(-c2ccccc2)nc1-c1ccccc1", "EC50": 11.4}
{"smiles": "O=C1C2C3C=CC(CO)(O3)C2C(=O)N1c1ccc(-c2ccccc2)cc1", "note": "(centres undefined)", "EC50": 10.2}
{"smiles": "CCN1/C(=C/C(C)=C/c2sc3ccccc3[n+]2CC)Sc2ccccc21", "EC50": 11.3}
{"smiles": "COc1ccc2c(c1)c1nnc(SC)nc1n2C", "EC50": 0.681}
{"smiles": "CCOC(=O)c1c(C)oc2c1c(C(c1cccnc1)N1CCOCC1)c(O)c1ccccc12", "note": "(centres undefined)", "EC50": 13.7}
{"smiles": "O=C(Nc1ccccc1)c1nnsc1S(=O)(=O)c1ccc(Cl)cc1", "EC50": 2.5}
{"smiles": "CCc1nc2ccccc2c(=O)n1NC(=O)c1c(O)c2ccccc2n(CC)c1=O", "EC50": 7.44}
{"smiles": "CN1CCN(C(=O)c2cc(COc3c(F)cccc3F)on2)CC1c1ccccc1", "note": "(centres undefined)", "EC50": 8.03}
{"smiles": "C[C@H]1C[C@@H](C)C(=O)[C@@H]([C@H](O)CC2CC(=O)NC(=O)C2)C1", "EC50": 0.57}
{"smiles": "C#CCOCCOCCOCCNc1nc(N2CCN(C(=O)CCCCCCCCCCNC(=O)[C@H](CCCCN)n3cc(CCO)nn3)CC2)nc(N2CCN(C(=O)CCCCCCCCCCNC(=O)[C@H](CCCN=C(N)N)n3cc(C[C@@H](C)CC)nn3)CC2)n1", "EC50": 10}
{"smiles": "O=C(Nc1nc(-c2ccccn2)cs1)c1cc2ccccc2o1", "EC50": 11.7}
{"smiles": "Cc1ccc(NN2C(=O)C=C(c3ccc(Cl)cc3)C2=O)cc1", "EC50": 1.28}
{"smiles": "CNC(CC(=O)c1ccc([N+](=O)[O-])cc1)C(Cl)(Cl)Cl", "note": "(centres undefined)", "EC50": 6.58}
{"smiles": "CCn1c(=O)c(C(=O)Nc2nc3ccccc3[nH]2)c(O)c2ccccc21", "EC50": 3.3}
{"smiles": "O=C(/C=C/c1ccccn1)c1cc(Br)ccc1O", "EC50": 8.96}
{"smiles": "CC(Oc1ccc(Br)cc1)C(=O)Nc1nc(-c2ccccn2)cs1", "note": "(centres undefined)", "EC50": 20.5}
{"smiles": "O=C1C=C(c2ccccc2)C(=O)N1Nc1ccccc1", "EC50": 3.91}
{"smiles": "N/C(Cc1ccc(Cl)cc1Cl)=N\\OC(=O)c1cccs1", "EC50": 12.9}
{"smiles": "Cc1ccc(/C=C2/C(=O)ON=C2c2ccccc2)o1", "EC50": 11.9}
{"smiles": "CC(Oc1ccc(Cl)cc1)C(=O)NNC(=S)NC(=O)c1ccco1", "note": "(centres undefined)", "EC50": 11}
{"smiles": "C/C(=N\\NC(=O)c1cccc(Br)c1)c1ccccn1", "EC50": 20.8}
{"smiles": "O=C1C=CC(=O)N1c1ccc(Sc2ccc([N+](=O)[O-])cc2)cc1", "EC50": 10.2}
{"smiles": "C[C@@H]1C[C@@H]([C@H](O)CC2CC(=O)NC(=O)C2)C(=O)[C@@H](C)C1", "EC50": 0.644}
{"smiles": "Cn1ncc2c(O/N=C(\\N)c3ccc(C(C)(C)C)cc3)ncnc21", "EC50": 13}
{"smiles": "C#CCOCCOCCOCCNc1nc(N2CCN(C(=O)CCCCCCCCCCNC(=O)[C@H](CCCCN)n3cc(C)nn3)CC2)nc(N2CCN(C(=O)CCCCCCCCCCNC(=O)[C@H](CCCN=C(N)N)n3cc(C[C@@H](C)CC)nn3)CC2)n1", "EC50": 10.7}
